Assay results reported in patent publication US7994185B2, “Benzene sulfonamide thiazole and oxazole compounds” (Glaxo Smith Kline LLC, priority 2008, dated 2011).
pIC50: −log10 of the molar value. Where two headings read alike, the source gives them in different places.

How the values were obtained:
[1] = target: T1, BRAFV600E full-length (amino acids 2-766) (Homo sapiens, UniProt P15056, V600E); assay: B-Raf Accelerated MEK ATPase assay (BRAMA); format: biochemical; conditions: categorized; for IC50: Table 1b, read-out: B-Raf pIC50 (converted)
T1 construct: His6-tagged BRAFV600E full-length (amino acids 2-766); His6; made in house; host or cells: baculovirus expression system (insect cells)
Summary of the method: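 Coupled-enzyme readout: ADP generated by MEK-mediated ATP hydrolysis, uncoupled from ERK phosphorylation, is linked to NADH oxidation through pyruvate kinase and lactate dehydrogenase.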

[2] = system: Human colon tumor cells (Colo205); assay: Cell growth inhibition assay (CellTiter-Glo), Colo205; format: cell-based
Summary of the method: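 Read-out was CellTiter-Glo luminescence (total ATP as a cell-number surrogate), expressed as % inhibition against DMSO vehicle wells. Before that, cells grown in RPMI/10% FBS were treated for 3 days at 37 °C with ten 1:3-spaced compound concentrations, final DMSO 0.2%.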

[3] = system: Human melanoma cancer cells (SK-MEL-28); assay: Cell growth inhibition assay (CellTiter-Glo), SK-MEL-28; format: cell-based
[4] = B-Raf Activity, Table 1a, highest pIC50 for the one or more runs
[5] = B-Raf pIC50, Table 1b, later runs, average pIC50 for the one or more runs
[6] = COLO 205, 72 h, Table 2a, 3 days incubation, read-out: Activity in Colo205 Tumor Cells
[7] = COLO 205, Table 2b, later runs, average for the one or more runs, categorized, read-out: IC50 for Colo205
[8] = SK-MEL-28, 72 h, Table 3a, 3 days incubation, read-out: Activity in SK-MEL-28 Tumor Cells
[9] = SK-MEL-28, Table 3b, later runs, average for the one or more runs, categorized, read-out: IC50 for SK-MEL-28
[10] = later runs, average pIC50 for the one or more runs

T1 sequence (P15056 2-766 V600E): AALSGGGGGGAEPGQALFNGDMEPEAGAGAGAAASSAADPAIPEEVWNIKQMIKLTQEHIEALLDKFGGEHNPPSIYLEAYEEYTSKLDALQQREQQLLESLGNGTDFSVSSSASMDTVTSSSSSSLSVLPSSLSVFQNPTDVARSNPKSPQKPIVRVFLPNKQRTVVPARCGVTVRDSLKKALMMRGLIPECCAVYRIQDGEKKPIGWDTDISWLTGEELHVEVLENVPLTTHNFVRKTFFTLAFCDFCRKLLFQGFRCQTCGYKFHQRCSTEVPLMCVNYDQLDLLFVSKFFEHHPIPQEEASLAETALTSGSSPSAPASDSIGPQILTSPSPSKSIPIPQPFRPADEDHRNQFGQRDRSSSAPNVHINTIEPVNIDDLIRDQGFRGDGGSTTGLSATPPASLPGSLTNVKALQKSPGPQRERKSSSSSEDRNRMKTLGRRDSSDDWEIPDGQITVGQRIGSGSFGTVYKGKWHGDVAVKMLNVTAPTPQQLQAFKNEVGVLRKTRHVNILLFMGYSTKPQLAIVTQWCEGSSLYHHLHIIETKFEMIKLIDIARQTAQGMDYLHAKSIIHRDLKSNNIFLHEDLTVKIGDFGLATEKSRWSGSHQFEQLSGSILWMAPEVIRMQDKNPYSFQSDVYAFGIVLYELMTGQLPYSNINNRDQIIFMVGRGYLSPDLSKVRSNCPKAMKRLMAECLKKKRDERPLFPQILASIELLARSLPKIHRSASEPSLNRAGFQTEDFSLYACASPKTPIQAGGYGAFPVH

| SMILES | pIC50 [1, 4] | pIC50 [1, 5] | pIC50 [2, 6] | pIC50 [2, 7] | pIC50 [3, 8] | pIC50 [3, 9] | IC50 [1, 10] |
| --- | --- | --- | --- | --- | --- | --- | --- |
| CC(C)(C)c1nc(-c2cccc(NS(=O)(=O)c3cc(F)ccc3F)c2F)c(-c2ccnc(NCCF)n2)s1 [Example 179] | > 7.00 | ≥ 8.50 | > 7.00 | > 7.00 | > 7.00 | > 7.00 | – |
| CC(C)c1nc(-c2ccc(F)c(NS(=O)(=O)c3c(F)cccc3F)c2)c(-c2ccnc(NCCC(F)(F)F)n2)s1 [Example 180] | > 7.00 | – | 6.00 to 7.00 | 6.00 to 7.00 | 6.00 to 7.00 | 6.00 to 7.00 | 3.16 to 31.6 nM |
| CC(C)CNc1nccc(-c2sc(N3CCOCC3)nc2-c2cccc(NS(=O)(=O)c3cc(F)ccc3F)c2F)n1 [Example 182] | > 7.00 | ≥ 8.50 | > 7.00 | > 7.00 | > 7.00 | > 7.00 | – |
| CC(=O)NCCNc1nccc(-c2sc(C(C)C)nc2-c2ccc(F)c(NS(=O)(=O)c3c(F)cccc3F)c2)n1 [Example 183] | > 7.00 | 6.00 to 7.50 | < 6.00 | 5.00 to 6.00 | < 6.00 | 5.00 to 6.00 | – |
| CC(C)c1nc(-c2ccc(F)c(NS(=O)(=O)c3cc(F)ccc3F)c2)c(-c2ccnc(NCCCN3CCCC3=O)n2)s1 [Example 184] | > 7.00 | – | > 7.00 | > 7.00 | > 7.00 | > 7.00 | 3.16 to 31.6 nM |
| CC(C)c1nc(-c2cccc(NS(=O)(=O)c3cc(F)ccc3F)c2F)c(-c2ccnc(NCCCN3CCCC3=O)n2)s1 [Example 185] | > 7.00 | ≥ 8.50 | > 7.00 | > 7.00 | > 7.00 | > 7.00 | – |
| CC(=O)NCCNc1nccc(-c2sc(C(C)C)nc2-c2ccc(F)c(NS(=O)(=O)c3cc(F)ccc3F)c2)n1 [Example 186] | > 7.00 | – | 6.00 to 7.00 | 6.00 to 7.00 | 6.00 to 7.00 | 6.00 to 7.00 | 3.16 to 31.6 nM |
| CC(=O)NCCNc1nccc(-c2sc(C(C)C)nc2-c2cccc(NS(=O)(=O)c3cc(F)ccc3F)c2F)n1 [Example 187] | > 7.00 | ≥ 8.50 | > 7.00 | 5.00 to 6.00 | > 7.00 | > 7.00 | – |
| O=C1CCCN1CCCNc1nccc(-c2sc(N3CCOCC3)nc2-c2cccc(NS(=O)(=O)c3cc(F)ccc3F)c2F)n1 [Example 188] | > 7.00 | ≥ 8.50 | > 7.00 | > 7.00 | > 7.00 | > 7.00 | – |
| CC(C)c1nc(-c2cccc(NS(=O)(=O)c3cc(F)ccc3F)c2F)c(-c2ccnc(NCCNC(=O)OC(C)(C)C)n2)s1 [Example 189] | > 7.00 | ≥ 8.50 | > 7.00 | > 7.00 | > 7.00 | > 7.00 | – |
| CC(C)c1nc(-c2cccc(NS(=O)(=O)c3cc(F)ccc3F)c2F)c(-c2ccnc(NCCN3CCCC3=O)n2)s1 [Example 190] | > 7.00 | ≥ 8.50 | > 7.00 | > 7.00 | > 7.00 | > 7.00 | – |
| CC(C)c1nc(-c2cccc(NS(=O)(=O)c3cc(F)ccc3F)c2F)c(-c2ccnc(NCCNS(C)(=O)=O)n2)s1 [Example 191] | > 7.00 | ≥ 8.50 | > 7.00 | > 7.00 | > 7.00 | > 7.00 | – |
| CC(C)c1nc(-c2cccc(NS(=O)(=O)c3cc(F)ccc3F)c2F)c(-c2ccnc(NCCNC(=O)CO)n2)s1 [Example 192] | > 7.00 | ≥ 8.50 | 6.00 to 7.00 | 6.00 to 7.00 | 6.00 to 7.00 | > 7.00 | – |
| CC(C)c1nc(-c2cccc(NS(=O)(=O)c3cc(F)ccc3F)c2F)c(-c2ccnc(NCCCNC(=O)OC(C)(C)C)n2)s1 [Example 193] | > 7.00 | – | 6.00 to 7.00 | 6.00 to 7.00 | 6.00 to 7.00 | 6.00 to 7.00 | 3.16 to 31.6 nM |
| CC(=O)NCCCNc1nccc(-c2sc(C(C)C)nc2-c2cccc(NS(=O)(=O)c3cc(F)ccc3F)c2F)n1 [Example 194] | > 7.00 | ≥ 8.50 | > 7.00 | – | > 7.00 | > 7.00 | – |
| CC(=O)NCCNc1nccc(-c2sc(C(C)(C)C)nc2-c2cccc(NS(=O)(=O)c3cc(F)ccc3F)c2F)n1 [Example 197] | > 7.00 | ≥ 8.50 | > 7.00 | > 7.00 | > 7.00 | > 7.00 | – |
| CC(C)(C)OC(=O)NCCNc1nccc(-c2sc(C(C)(C)C)nc2-c2cccc(NS(=O)(=O)c3cc(F)ccc3F)c2F)n1 [Example 198] | > 7.00 | ≥ 8.50 | 6.00 to 7.00 | 6.00 to 7.00 | 6.00 to 7.00 | 6.00 to 7.00 | – |
| CC(C)(C)c1nc(-c2cccc(NS(=O)(=O)c3cc(F)ccc3F)c2F)c(-c2ccnc(NCCNS(C)(=O)=O)n2)s1 [Example 199] | > 7.00 | ≥ 8.50 | > 7.00 | > 7.00 | > 7.00 | > 7.00 | – |
| Nc1nccc(-c2sc(N3CCOCC3)nc2-c2cccc(NS(=O)(=O)c3cc(F)ccc3F)c2)n1 [Example 200] | > 7.00 | – | 6.00 to 7.00 | 6.00 to 7.00 | 6.00 to 7.00 | 6.00 to 7.00 | 3.16 to 31.6 nM |
| CC(C)c1nc(-c2ccc(F)c(NS(=O)(=O)c3cc(F)ccc3F)c2)c(-c2ccnc(NCCS(C)(=O)=O)n2)s1 [Example 201] | > 7.00 | ≥ 8.50 | > 7.00 | > 7.00 | > 7.00 | > 7.00 | – |
| CS(=O)(=O)CCNc1nccc(-c2sc(N3CCOCC3)nc2-c2ccc(F)c(NS(=O)(=O)c3c(F)cccc3F)c2)n1 [Example 202] | > 7.00 | 6.00 to 7.50 | < 6.00 | 5.00 to 6.00 | 6.00 to 7.00 | 6.00 to 7.00 | – |
| CC(C)c1nc(-c2ccc(F)c(NS(=O)(=O)c3cc(F)ccc3F)c2)c(-c2ccnc(NCCCS(C)(=O)=O)n2)s1 [Example 204] | > 7.00 | – | > 7.00 | > 7.00 | > 7.00 | > 7.00 | 3.16 to 31.6 nM |
| CC(C)c1nc(-c2ccc(F)c(NS(=O)(=O)c3cc(F)ccc3F)c2)c(-c2ccnc(NC3CCS(=O)(=O)CC3)n2)s1 [Example 205] | > 7.00 | – | 6.00 to 7.00 | 6.00 to 7.00 | 6.00 to 7.00 | 6.00 to 7.00 | 3.16 to 31.6 nM |
| CC(C)CNc1nccc(-c2sc(N3CCOCC3)nc2-c2cccc(NS(=O)(=O)c3cc(F)ccc3F)c2)n1 [Example 206] | > 7.00 | – | > 7.00 | > 7.00 | > 7.00 | > 7.00 | 3.16 to 31.6 nM |
| O=S(=O)(Nc1cccc(-c2nc(N3CCOCC3)sc2-c2ccnc(NCCO)n2)c1F)c1cc(F)ccc1F [Example 208] | > 7.00 | ≥ 8.50 | > 7.00 | > 7.00 | > 7.00 | > 7.00 | – |
